Test results reported in paper PMC10707797, “Ureidobenzenesulfonamides as Selective Carbonic Anhydrase I, IX, and XII Inhibitors” (Molecules, 2023).
Values belong to the compound of their own block, whether it stands above or below them.

Legend:
hCA XII [1] = target: T1, hCA XII (Homo sapiens, UniProt O43570); test: stop-flow CA inhibition assay, hCA XII; conditions: for S(I/XII) selectivity: ratio Ki hCA I / Ki hCA XII; for S(II/XII) selectivity: ratio Ki hCA II / Ki hCA XII
hCA IX [2] = target: T2, hCA IX (Homo sapiens, UniProt Q16790); test: stop-flow CA inhibition assay, hCA IX; conditions: for S(I/IX) selectivity: ratio Ki hCA I / Ki hCA IX; for S(II/IX) selectivity: ratio Ki hCA II / Ki hCA IX
hCA I = hCA I (Homo sapiens, UniProt P00915); test: biochemical
hCA XII [3] = target: T1, hCA XII; test: biochemical
hCA II = hCA II (Homo sapiens, UniProt P00918); test: biochemical
hCA IX [4] = target: T2, hCA IX; test: biochemical

T1 sequence (O43570 25-354): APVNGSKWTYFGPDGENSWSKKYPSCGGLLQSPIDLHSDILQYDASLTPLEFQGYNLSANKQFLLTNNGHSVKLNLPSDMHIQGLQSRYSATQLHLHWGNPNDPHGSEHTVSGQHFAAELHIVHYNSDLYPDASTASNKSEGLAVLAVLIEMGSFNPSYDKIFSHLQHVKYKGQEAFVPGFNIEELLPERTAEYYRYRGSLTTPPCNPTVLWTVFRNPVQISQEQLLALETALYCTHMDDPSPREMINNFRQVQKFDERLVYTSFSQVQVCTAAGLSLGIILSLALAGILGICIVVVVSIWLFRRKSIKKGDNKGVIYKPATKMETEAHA
Chain of hCA I (P00915 whole entry): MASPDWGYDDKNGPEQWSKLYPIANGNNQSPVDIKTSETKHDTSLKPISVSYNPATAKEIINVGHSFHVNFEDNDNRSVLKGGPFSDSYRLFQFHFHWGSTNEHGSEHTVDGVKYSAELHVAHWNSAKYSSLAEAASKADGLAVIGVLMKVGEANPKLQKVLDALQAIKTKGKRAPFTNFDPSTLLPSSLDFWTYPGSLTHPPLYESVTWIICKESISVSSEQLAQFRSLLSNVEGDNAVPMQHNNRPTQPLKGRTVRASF

S(I/XII) selectivity (hCA XII [1]): 15.66
S(II/XII) selectivity (hCA XII [1]): 2.16
S(I/IX) selectivity (hCA IX [2]): 5.66
S(II/IX) selectivity (hCA IX [2]): 0.78
Ki (hCA I): 0.243 µM
Ki (hCA XII [3]): 0.0155 µM
Ki (hCA II): 0.0335 µM
Ki (hCA IX [4]): 0.0429 µM
SMILES: NS(=O)(=O)c1ccc(NC(=O)Nc2cccc3ccccc23)cc1 [Compound 1, 4-[3-(Naphthalen-1-yl)ureido]benzenesulfonamide]

melting point: 230 to 232 °C
SMILES: NS(=O)(=O)c1ccc(NC(=O)Nc2ccc(Cc3ccccc3)cc2)cc1 [Compound 2, 4-[3-(4-Benzylphenyl)ureido]benzenesulfonamide]

melting point: 219 to 221 °C
SMILES: NS(=O)(=O)c1ccc(NC(=O)Nc2ccccc2Cc2ccccc2)cc1 [Compound 3]

Ki (hCA I): 6.65 µM
melting point: 271 to 272 °C
Ki (hCA II): 5.03 µM
SMILES: COc1ccc(-c2ccccc2)cc1NC(=O)Nc1ccc(S(N)(=O)=O)cc1 [Compound 4]

melting point: 227 to 229 °C
SMILES: COc1ccc(NC(=O)Nc2ccc(S(N)(=O)=O)cc2)cc1 [Compound 5]

Ki (hCA XII [3]): 0.0904 µM
Ki (hCA IX [4]): 0.21 µM
SMILES: COc1cccc(NC(=O)Nc2ccc(S(N)(=O)=O)cc2)c1 [Compound 6, 4-[3-(3-Methoxyphenyl)ureido]benzenesulfonamide]

melting point: 240 to 241 °C
SMILES: NS(=O)(=O)c1ccc(NC(=O)Nc2cccc(F)c2)cc1 [Compound 7, 4-[3-(3-Fluorophenyl)ureido]benzenesulfonamide]

melting point: 229 to 231 °C
SMILES: CCNC(=O)Nc1ccc(S(N)(=O)=O)cc1 [Compound 8, 4-(3-Ethylureido)benzenesulfonamide]

Ki (hCA I): 0.448 µM
melting point: 221 to 223 °C
Ki (hCA XII [3]): 0.0459 µM
Ki (hCA IX [4]): 0.184 µM
SMILES: CC(C)NC(=O)Nc1ccc(S(N)(=O)=O)cc1 [Compound 9, 4-(3-Isopropylureido)benzenesulfonamide]

melting point: 194 to 196 °C
SMILES: CCCCNC(=O)Nc1ccc(S(N)(=O)=O)cc1 [Compound 10, 4-(3-Butylureido)benzenesulfonamide]

melting point: 202 to 203 °C
SMILES: CCCCCCNC(=O)Nc1ccc(S(N)(=O)=O)cc1 [Compound 11, 4-(3-Hexylureido)benzenesulfonamide]

S(I/XII) selectivity (hCA XII [1]): 14.84
S(II/XII) selectivity (hCA XII [1]): 3.27
S(I/IX) selectivity (hCA IX [2]): 4.57
S(II/IX) selectivity (hCA IX [2]): 1.01
Ki (hCA I): 0.949 µM
melting point: 262 to 264 °C
Ki (hCA XII [3]): 0.0639 µM
Ki (hCA II): 0.209 µM
Ki (hCA IX [4]): 0.208 µM
SMILES: NS(=O)(=O)c1ccc(NC(=O)NC(=O)c2ccccc2)cc1 [Compound 12, N-[(4-Sulfamoylphenyl)carbamoyl]benzamide]

melting point: 261 to 263 °C
SMILES: CCOC(=O)c1ccc(NC(=O)Nc2ccc(S(N)(=O)=O)cc2)cc1 [Compound 13, Ethyl 4-[3-(4-sulfamoylphenyl)ureido]benzoate]

melting point: 310 to 313 °C
SMILES: NS(=O)(=O)c1ccc(NC(=O)Nc2ccc(C(=O)O)cc2)cc1 [Compound 14, 4-[3-(4-Sulfamoylphenyl)ureido]benzoic acid]

melting point: 209 °C
SMILES: NS(=O)(=O)c1ccc(NC(=O)Nc2cc(Cl)ccc2Oc2ccccc2)cc1 [Compound 15, 4-[3-(5-Chloro-2-phenoxyphenyl)ureido]benzenesulfonamide]
